Test results as given in US20250296939A1, “BENZOTHIOPHENE COMPOUND” (Kyoto Pharmaceutical Industries, Ltd., priority 2022, published 2025).

What was measured:
[1] = target: GST-fused human Keap1 (amino acid residues: 325-642) protein (Homo sapiens (Human), UniProt Q14145); assay: FP assay (in vitro): inhibition of binding between Nrf2 and Keap1 by fluorescence polarization; settings: 20 nM GST-fused human Keap1, 10 nM FITC-labeled Nrf2 peptide, 2 hr at room temperature
[2] = test system: NQO1 activity in Hepa1c1c7 cells; assay: NAD(P)H: quinone oxidoreductase-1 (NQO1) enzyme induction assay (in vitro); format: cell-based, mouse; settings: Mus musculus, Hepa-1c1c7, NQO1 activity upon addition of 400 nM of test compound, about 48 hr, ratio from the base without the compound
Description: Experimental Example 2: NAD(P)H: Quinone Oxidoreductase-1 (NQO1) Enzyme Induction Assay (In Vitro)
The NQO1 assay was performed based on a previous report (Methods in Enzymology 2004; 382: 243-258). Hepa1c1c7 cells (mouse hepatocyte cell line, ATCC, cat. no. CRL-2026) were cultured in D-MEM medium containing 10% FBS and 1% penicillin/streptomycin (5% CO2, 37° C.), and seeded into 96-well plates (Corning REF. 353072) at 1×10^4 cells/well. A portion of the wells were prepared with medium only for background measurement without seeding cells. The next day, 400 nM of the test compound (0.004% of the final concentration in DMSO) dissolved in DMSO was added thereto, and the wells were incubated for about 48 hr. A well without adding the test compound was prepared for base activity assay in part.
Cell lysate (solution containing 0.8% digitonin, 2 mM EDTA), reaction solution (solution containing 25 mM Tris-HCl, 0.07% albumin, 0.01% Tween-20, 2 U/mL glucose-6-phosphate dehydrogenase, 5 μM flavin adenine dinucleotide, 1 μM glucose-6-phosphate, 30 μM nicotinamide adenine dinucleotide phosphate, 0.03% 3-(4,5-dimethyl-2-thiazolyl)-2,5-diphenyltetrazolium bromide (MTT), and 50 μM menadione), stop solution (solution containing 0.3 mM dicoumarol and 5 mM potassium dihydrogen phosphate, pH 7.4) were prepared. After the medium was removed, 50 μL of the cell lysate was added and incubated at 37° C. for 10 minutes, followed by shaking at room temperature for 10 minutes. 200 μL of reaction solution was added thereto, and allowed to stand for 5 minutes at room temperature. 50 μL of the stop solution was added thereto, and absorbance was measured at 610 nm on a SpectraMax PLUS384 (Molecular devices) or POWERSCAN HT (DS Pharma Biomedical). The test results were analyzed in Excel, and the NQO1 activity upon addition of 400 nM of test compound was calculated as a ratio from the base without the compound.
The results of each test compound in this test are shown in the following Table 2 (A: 5<NQO1 activity ratio, B: 3<NQO1 activity ratio 5, C: 1.5<NQO1 activity ratio 3).

Sequence of GST-fused human Keap1 (amino acid residues: 325-642) protein (Q14145 325-624 limits assumed): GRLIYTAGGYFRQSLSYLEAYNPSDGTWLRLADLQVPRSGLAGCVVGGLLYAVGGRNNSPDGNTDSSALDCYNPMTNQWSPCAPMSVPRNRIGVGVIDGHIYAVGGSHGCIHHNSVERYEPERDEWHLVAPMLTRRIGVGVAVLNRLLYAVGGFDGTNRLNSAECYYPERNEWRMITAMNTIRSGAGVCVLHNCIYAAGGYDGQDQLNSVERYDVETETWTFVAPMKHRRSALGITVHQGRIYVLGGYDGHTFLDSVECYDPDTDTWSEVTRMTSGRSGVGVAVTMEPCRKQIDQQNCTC

| SMILES | IC50 [1] | fold induction at 0.4 µM [2] |
| --- | --- | --- |
| CC[C@@H]1CN(Cc2cc([C@@H](CC(=O)O)c3cc(Cl)c4c(nnn4C)c3C)cc3ccsc23)Cc2nc(O)ccc2O1 [Example 31, (3R)-3-(7-Chloro-1,4-dimethyl-1H-benzotriazol-5-yl)-3-(7-{[(2R)-2-ethyl-7-hydroxy-2,3-dihydropyrido[2,3-f][1,4]oxazepin-4(5H)-yl]methyl}-1-benzothiophen-5-yl)propanoic acid] | ≤ 10 nM | > 5 |
| CC[C@@H]1CN(Cc2cc([C@H](CC(=O)O)c3cc(Cl)c4c(nnn4C)c3C)cc3ccsc23)Cc2nc(O)ccc2O1 [Example 32, (3S)-3-(7-Chloro-1,4-dimethyl-1H-benzotriazol-5-yl)-3-(7-{[(2R)-2-ethyl-7-hydroxy-2,3-dihydropyrido[2,3-f][1,4]oxazepin-4(5H)-yl]methyl}-1-benzothiophen-5-yl)propanoic acid] | 10 to 30 nM | > 5 |
| CC[C@@H]1CN(Cc2cc([C@@H](CC(=O)O)c3cc(C#N)c4c(nnn4C)c3C)cc3ccsc23)Cc2nc(O)ccc2O1 [Example 33, (3R)-3-(7-Cyano-1,4-dimethyl-1H-benzotriazol-5-yl)-3-(7-{[(2R)-2-ethyl-7-hydroxy-2,3-dihydropyrido[2,3-f][1,4]oxazepin-4(5H)-yl]methyl}-1-benzothiophen-5-yl)propanoic acid] | 10 to 30 nM | > 5 |
| CC[C@@H]1CN(Cc2cc([C@H](CC(=O)O)c3cc(C#N)c4c(nnn4C)c3C)cc3ccsc23)Cc2nc(O)ccc2O1 [Example 34, (3S)-3-(7-Cyano-1,4-dimethyl-1H-benzotriazol-5-yl)-3-(7-{[(2R)-2-ethyl-7-hydroxy-2,3-dihydropyrido[2,3-f][1,4]oxazepin-4(5H)-yl]methyl}-1-benzothiophen-5-yl)propanoic acid] | 10 to 30 nM | 3 to 5 |
| CC[C@@H]1CN(Cc2cc([C@@H](CC(=O)O)c3cc(C4CC4)c4c(nnn4C)c3C)cc3ccsc23)Cc2nc(O)ccc2O1 [Example 35, (3R)-3-(7-Cyclopropyl-1,4-dimethyl-1H-benzotriazol-5-yl)-3-(7-{[(2R)-2-ethyl-7-hydroxy-2,3-dihydropyrido[2,3-f][1,4]oxazepin-4(5H)-yl]methyl}-1-benzothiophen-5-yl)propanoic acid] | 10 to 30 nM | > 5 |
| CC[C@@H]1CN(Cc2cc([C@H](CC(=O)O)c3cc(C4CC4)c4c(nnn4C)c3C)cc3ccsc23)Cc2nc(O)ccc2O1 [Example 36, (3S)-3-(7-Cyclopropyl-1,4-dimethyl-1H-benzotriazol-5-yl)-3-(7-{[(2R)-2-ethyl-7-hydroxy-2,3-dihydropyrido[2,3-f][1,4]oxazepin-4(5H)-yl]methyl}-1-benzothiophen-5-yl)propanoic acid] | 10 to 30 nM | > 5 |
| Cc1c([C@H](CC(=O)O)c2cc(CN3Cc4nc(O)ccc4O[C@H](C(F)(F)F)C3)c3sccc3c2)ccc2c1nnn2C [Example 37, (3R)-3-(1,4-Dimethyl-1H-benzotriazol-5-yl)-3-(7-{[(2S)-7-hydroxy-2-(trifluoromethyl)-2,3-dihydropyrido[2,3-f][1,4]oxazepin-4(5H)-yl]methyl}-1-benzothiophen-5-yl)propanoic acid] | 10 to 30 nM | > 5 |

Continued, in another order:

| IC50 [1] | SMILES | fold induction at 0.4 µM [2] |
| --- | --- | --- |
| ≤ 10 nM | Cc1c([C@@H](CC(=O)O)c2cc(CN3Cc4nc(O)ccc4O[C@H](C(F)(F)F)C3)c3sccc3c2)ccc2c1nnn2C [Example 38, (3S)-3-(1,4-Dimethyl-1H-benzotriazol-5-yl)-3-(7-{[(2S)-7-hydroxy-2-(trifluoromethyl)-2,3-dihydropyrido[2,3-f][1,4]oxazepin-4(5H)-yl]methyl}-1-benzothiophen-5-yl)propanoic acid] | > 5 |
| 300 to 3000 nM | Cc1c([C@H](CC(=O)O)c2cc(CN3Cc4nc(O)ccc4O[C@@H](C(F)(F)F)C3)c3sccc3c2)ccc2c1nnn2C [Example 39, (3R)-3-(1,4-Dimethyl-1H-benzotriazol-5-yl)-3-(7-{[(2R)-7-hydroxy-2-(trifluoromethyl)-2,3-dihydropyrido[2,3-f][1,4]oxazepin-4(5H)-yl]methyl}-1-benzothiophen-5-yl)propanoic acid] | 1.5 to 3 |
| 300 to 3000 nM | Cc1c([C@@H](CC(=O)O)c2cc(CN3Cc4nc(O)ccc4O[C@@H](C(F)(F)F)C3)c3sccc3c2)ccc2c1nnn2C [Example 40, (3S)-3-(1,4-Dimethyl-1H-benzotriazol-5-yl)-3-(7-{[(2R)-7-hydroxy-2-(trifluoromethyl)-2,3-dihydropyrido[2,3-f][1,4]oxazepin-4(5H)-yl]methyl}-1-benzothiophen-5-yl)propanoic acid] | 1.5 to 3 |
| ≤ 10 nM | CC[C@@H]1CN(Cc2cc([C@@H](CC(=O)O)c3cc(OC(F)(F)F)c4c(nnn4C)c3C)cc3ccsc23)Cc2nc(O)ccc2O1 [Example 41, (3R)-3-[1,4-Dimethyl-7-(trifluoromethoxy)-1H-benzotriazol-5-yl]-3-(7-{[(2R)-2-ethyl-7-hydroxy-2,3-dihydropyrido[2,3-f][1,4]oxazepin-4(5H)-yl]methyl}-1-benzothiophen-5-yl)propanoic acid] | > 5 |
| ≤ 10 nM | CC[C@@H]1CN(Cc2cc([C@H](CC(=O)O)c3cc(OC(F)(F)F)c4c(nnn4C)c3C)cc3ccsc23)Cc2nc(O)ccc2O1 [Example 42, (3S)-3-[1,4-Dimethyl-7-(trifluoromethoxy)-1H-benzotriazol-5-yl]-3-(7-{[(2R)-2-ethyl-7-hydroxy-2,3-dihydropyrido[2,3-f][1,4]oxazepin-4(5H)-yl]methyl}-1-benzothiophen-5-yl)propanoic acid] | > 5 |
| 10 to 30 nM | CC[C@@H]1CN(Cc2cc([C@@H](CC(=O)O)c3cc(OC(F)F)c4c(nnn4C)c3C)cc3ccsc23)Cc2nc(O)ccc2O1 [Example 43, (3R)-3-[7-(Difluoromethoxy)-1,4-dimethyl-1H-benzotriazol-5-yl]-3-(7-{[(2R)-2-ethyl-7-hydroxy-2,3-dihydropyrido[2,3-f][1,4]oxazepin-4(5H)-yl]methyl}-1-benzothiophen-5-yl)propanoic acid] | > 5 |
| ≤ 10 nM | CC[C@@H]1CN(Cc2cc([C@H](CC(=O)O)c3cc(OC(F)F)c4c(nnn4C)c3C)cc3ccsc23)Cc2nc(O)ccc2O1 [Example 44, (3S)-3-[7-(Difluoromethoxy)-1,4-dimethyl-1H-benzotriazol-5-yl]-3-(7-{[(2R)-2-ethyl-7-hydroxy-2,3-dihydropyrido[2,3-f][1,4]oxazepin-4(5H)-yl]methyl}-1-benzothiophen-5-yl)propanoic acid] | > 5 |
| 10 to 30 nM | Cc1c([C@H](CC(=O)O)c2cc(CN3Cc4nc(O)ccc4O[C@H](C(C)(F)F)C3)c3sccc3c2)ccc2c1nnn2C [Example 45, (3R)-3-(7-{[(2S)-2-(1,1-Difluoroethyl)-7-hydroxy-2,3-dihydropyrido[2,3-f][1,4]oxazepin-4(5H)-yl]methyl}-1-benzothiophen-5-yl)-3-(1,4-dimethyl-1H-benzotriazol-5-yl)propanoic acid] | > 5 |
